{"source": "patent US20100130604A1", "about": "“USE OF ROSMARINIC ACID IN MANUFACTURE OF MEDICAMENTS FOR TREATING OR PREVENTING HEPATIC AND RENAL DISEASES” (SHANGDONG LUYE NATURAL DRUG RESEARCH AND DEVELOPMENT CO., …, priority 2006, published 2010)", "key": {"CTGF mRNA": {"test_system": "CTGF mRNA", "experiment": "RT-PCR detection of CTGF mRNA expression in HSC-T6", "assay_type": "cell-based", "conditions": "for CTGF mRNA expression rate (%): control 98.5", "description": "Total RNA was extracted from the cell lysate obtained in section 2.3 according the manufacturer's instructions with UNIQ-10 column total RNA extraction kit. A UV spectrophotometer was used to measure the concentration and purity. This was repeated three times and the total RNA concentration was calculated.\nReaction system: 1 μL of RT product; 10 μL of 2×PCR Master; 1 μL of each of sense primer and anti-sense primer; added double distilled water to 20 μL.\nSense primer: 5′-[…]-3′;\nAnti-sense primer: 5′-[…]-3′; primer length of 383 bp;\nInternal standard GAPDH (Kangcheng Bio-tech Inc.), with sense primer as 5′-[…]-3′, anti-sense primer as 5′-[…]-3′, and length of 452 bp;\nReaction conditions: pre-denature at 94° C. for 2 min, denature at 94° C. for 45 s, anneal at 54.9° C. for 30 s, extend at 72° C. for 60 s, extend at 72° C. for 10 min after 35 cycles and detect with 1.2% agarose gel electrophoresis. Scan with gel image system and calculate the ratio of gray scale between CTGF and GAPDH as an indicator of CTGF expression.\nAccording to the results from the MTT method, groups of 0, 10, and 50 mg/L RA were selected and subjected to RT-PCR."}, "[1]": {"test_system": "renal interstitial fibrosis in rats", "experiment": "Renal interstitial fibrosis in rats with unilateral urethral obstruction", "assay_type": "in vivo, Sprague Dawley rats", "conditions": "for HYP: left kidney; for HYP / FN: day 10; for FN: serum", "description": "130 rats were randomly divided into 13 groups, namely, a sham operation group, a model group, benazapril p.o. Group at 10 mg/kg, RA i.v. groups at 2.5 mg/kg, 5 mg/kg, 25 mg/kg, 75 mg/kg, and 150 mg/kg of RA, and RA p.o. groups at 2.5 mg/kg, 5 mg/kg, 25 mg/kg, 150 mg/kg, and 300 mg/kg of RA. The animals were acclimated for a week before they were all anaesthetised with an i.p. dose of 10% chloral hydrate at 3.0mL/kg and placed on the operating table in right lateral position. The rats were shaved and the operating area was disinfected using iodine tincture and 75% ethanol. The left urethra was exposed and isolated after a left lateral incision was made on the abdominal area and skin, muscles and all other layers of the abdominal wall were incised sequentially. In the sham group, the left urethra was only isolated without being ligated or cut off. In all other animals, the left urethra was ligated with No. 4 suture and obstructed followed by closure of the abdominal wall layer by layer. The animals were anaesthetised again with 10% chloral hydrate 10 days later, blood was collected and serum was separated to determine FN levels. The left kidney was removed after thorough rinsing and then fixed in 4% paraformaldehyde buffer. HYP level was determined according to instructions provided with the kit."}}, "data": [{"smiles": "O=C(/C=C/c1ccc(O)c(O)c1)O[C@H](Cc1ccc(O)c(O)c1)C(=O)O", "note": "[RA, R(+)2-{[3-(3,4-dihydroxylphenyl-(oxo-2-propenyl)oxy]3,4-dihydroxylphenylpropionic acid]}]", "values": [{"measurement": "CTGF mRNA expression rate (%)", "setting": "CTGF mRNA; 10 mg/L", "value": "71.2 ± 8.7", "unit": "%"}, {"measurement": "CTGF mRNA expression rate (%)", "setting": "CTGF mRNA; 50 mg/L", "value": "63.2 ± 9.2", "unit": "%"}, {"measurement": "CTGF mRNA expression in HSC-T6", "setting": "CTGF mRNA; 10 and 50 mg/L", "value": "significant inhibition on CTGF mRNA expression"}, {"measurement": "kidney lesions, light microscopic examination", "setting": "[1]; RA treated animals vs model group", "value": "improvement of various degrees in lesions"}, {"measurement": "FN and HYP levels vs model group", "setting": "[1]; i.v. 2.5, 5, 25, 75, 150 mg/kg, p.o. 5, 25, 150, 300 mg/kg, p<0.05 or 0.01", "value": "can all significantly reduce FN and HYP levels"}, {"measurement": "HYP", "setting": "[1]; i.v. 2.5 mg/kg", "value": "612 ± 102", "unit": "µg/g"}, {"measurement": "HYP", "setting": "[1]; i.v. 5 mg/kg", "value": "605 ± 118", "unit": "µg/g"}, {"measurement": "HYP", "setting": "[1]; i.v. 25 mg/kg", "value": "573 ± 98", "unit": "µg/g"}, {"measurement": "HYP", "setting": "[1]; i.v. 75 mg/kg", "value": "533 ± 94", "unit": "µg/g"}, {"measurement": "HYP", "setting": "[1]; i.v. 150 mg/kg", "value": "526 ± 121", "unit": "µg/g"}, {"measurement": "HYP", "setting": "[1]; p.o. 2.5 mg/kg", "value": "705 ± 162", "unit": "µg/g"}, {"measurement": "HYP", "setting": "[1]; p.o. 5 mg/kg", "value": "612 ± 118", "unit": "µg/g"}, {"measurement": "HYP", "setting": "[1]; p.o. 25 mg/kg", "value": "573 ± 98", "unit": "µg/g"}, {"measurement": "HYP", "setting": "[1]; p.o. 150 mg/kg", "value": "563 ± 94", "unit": "µg/g"}, {"measurement": "HYP", "setting": "[1]; p.o. 300 mg/kg", "value": "556 ± 121", "unit": "µg/g"}, {"measurement": "FN", "setting": "[1]; i.v. 2.5 mg/kg", "value": "22.7 ± 6.0", "unit": "mg/L"}, {"measurement": "FN", "setting": "[1]; i.v. 5 mg/kg", "value": "19.9 ± 6.3", "unit": "mg/L"}, {"measurement": "FN", "setting": "[1]; i.v. 25 mg/kg", "value": "17.7 ± 6.2", "unit": "mg/L"}, {"measurement": "FN", "setting": "[1]; i.v. 75 mg/kg", "value": "16.5 ± 4.3", "unit": "mg/L"}, {"measurement": "FN", "setting": "[1]; i.v. 150 mg/kg", "value": "16.4 ± 4.4", "unit": "mg/L"}, {"measurement": "FN", "setting": "[1]; p.o. 2.5 mg/kg", "value": "22.4 ± 6.5", "unit": "mg/L"}, {"measurement": "FN", "setting": "[1]; p.o. 5 mg/kg", "value": "19.8 ± 6.2", "unit": "mg/L"}, {"measurement": "FN", "setting": "[1]; p.o. 25 mg/kg", "value": "17.5 ± 6.3", "unit": "mg/L"}, {"measurement": "FN", "setting": "[1]; p.o. 150 mg/kg", "value": "17.2 ± 4.3", "unit": "mg/L"}, {"measurement": "FN", "setting": "[1]; p.o. 300 mg/kg", "value": "17.2 ± 4.4", "unit": "mg/L"}]}]}
